This is an account of results in EP1946777A1, “Substituted pyrazoline for preventing weight gain” (Laboratorios del Dr. Esteve S.A., priority 2007, dated 2008).

Where two headings read alike, the source gives them in different places.

One assay concerns the target T1, rat CB1 receptors (Rattus norvegicus, UniProt P20272).
T1 construct: cerebella from male Wistar rats (250-300g) were carefully dissected on ice and homogenates were prepared; from tissue; host or cells: rat cerebellum (male Wistar) membrane homogenate
In words: Affinity for rat CB1 receptors: competitive binding of [3H]-CP 55,940 to rat cerebellum membranes. The settings on record: 1 nM [3H]-CP 55,940, rat cerebellum membranes, 1 hour at 30°C. As for the experimental part:
Binding affinity to CB1 receptor was evaluated according to the method of Govaerts et al (2004) with the following modifications Briefly, cerebella from male Wistar rats (250-300g) were carefully dissected on ice and homogenates were prepared in cold 50 mM Tris-HCl, 5 mM MgCl2, 1 mM EDTA, 0.25 M sucrose, pH 7.4 with a Potter-Heljheim homogenizer and the suspension was centrifuged at 1,000 x g for 5 minutes. The supernatants were collected and centrifuged 50,000 x g for 15 min. The resulting pellets were resuspended in Tris-HCl buffer without sucrose, homogenized and incubated for 15 min at 37°C in an orbital shaker bath and centrifuged again at 50,000 x g for 15 min. Pellets were weighed, resuspended in Tris-HCl buffer without sucrose, homogenized with an Ultraturrax at 13,500 rpm for 3 x 5 seconds and aliquoted in 0.9 ml volumes in Eppendorf tubes. Aliquots were centrifuged at 20,800 x g for 5 minutes, supernatants discarded and pellets were frozen at -80°C until use. Total protein concentration was determined using a Bio-Rad commercial assay base on the Lowry method. […]
Binding data were analyzed by non-linear regression with the software GraphPad Prism Version 3.03.

The conditions of assay [1]: Figure 5; cited from earlier work.
The conditions of assay [2]: Figure 4; cited from earlier work.

T1 sequence (P20272 whole entry): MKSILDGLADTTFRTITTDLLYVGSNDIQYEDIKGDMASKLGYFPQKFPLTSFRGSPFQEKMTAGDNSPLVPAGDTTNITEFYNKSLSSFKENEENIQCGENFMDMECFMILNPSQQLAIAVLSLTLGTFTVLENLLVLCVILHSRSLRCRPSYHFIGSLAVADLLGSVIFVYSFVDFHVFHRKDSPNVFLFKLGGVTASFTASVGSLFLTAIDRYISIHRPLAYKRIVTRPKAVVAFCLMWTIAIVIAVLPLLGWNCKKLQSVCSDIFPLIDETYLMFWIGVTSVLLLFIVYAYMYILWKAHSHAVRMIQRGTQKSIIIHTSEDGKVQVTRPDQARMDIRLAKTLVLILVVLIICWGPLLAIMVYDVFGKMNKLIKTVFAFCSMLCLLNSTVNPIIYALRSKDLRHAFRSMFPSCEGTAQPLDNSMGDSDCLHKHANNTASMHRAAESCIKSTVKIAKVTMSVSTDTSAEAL

Take `O=C(NN1CCCCC1)C1=NN(c2ccc(Cl)cc2Cl)C(c2ccc(Cl)cc2)C1` (stereo not shown) [Subgroup A1, Chemical example 1]: the figures for the IC50 at rat CB1 receptors (read-out: IC50) and at rat CB1 receptors (read-out: pIC50 (converted)) were 26 nM and 22.4 nM, respectively.

`Cc1c(C(=O)NN2CCCCC2)nn(-c2ccc(Cl)cc2Cl)c1-c1ccc(Cl)cc1` [rimonabant]: the “ability to prevent antipsychotic-induced weight-gain” value in assay [1] was “only partially effective”.

On to `CC(C)CC(N(C)C)C1(c2ccc(Cl)cc2)CCC1` (stereo not shown) [sibutramine], for which, in assay [2], the “prevention of antipsychotic-induced weight-gain” value is on record as “Partial prevention of antipsychotic-induced weight-gain”.
